Assay results from ChEMBL document CHEMBL1201862, “PubChem BioAssay data set” (2004).
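96-well plates; 48 h exposure; 5 concentrations. Endpoints by linear interpolation between flanking doses. Not reached: highest tested concentration assigned. Abbreviation: GI50, concentration required for 50% inhibition of growth.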 Active and inactive are the calls of the source. Rule as the data show it: active = GI50 up to about 1.1 µM and inactive = higher.

Columns and labels:
Assay in all cases: DTP human tumour cell line panel, 48 h
HT-29 = system: HT-29
SF-295 = system: SF-295
UACC-62 = system: UACC-62
OVCAR-8 = system: OVCAR-8
OVCAR-4 = system: OVCAR-4
M14 = system: M14
CCRF-CEM = system: CCRF-CEM
K562 = system: K562
SW-620 = system: SW-620
A549 = system: A549
Hs-578T = system: Hs-578T
SK-MEL-5 = system: SK-MEL-5
MDA-MB-435 = system: MDA-MB-435
IGROV-1 = system: IGROV-1
RXF 393 = system: RXF 393
MDA-MB-231 = system: MDA-MB-231
SK-OV-3 = system: SK-OV-3
KM12 = system: KM12
HCT-116 = system: HCT-116
NCI/ADR-RES = system: NCI/ADR-RES

Measured: GI50

c1ccc2c(c1)Nc1nc3nonc3nc1N2
inactive: HT-29 > 100 µM | SF-295 > 100 µM | UACC-62 > 100 µM | OVCAR-8 > 100 µM | OVCAR-4 62.5 µM | M14 > 100 µM | CCRF-CEM > 100 µM | K562 > 100 µM | SW-620 > 100 µM | A549 > 100 µM | Hs-578T > 100 µM | SK-MEL-5 > 100 µM | MDA-MB-435 > 100 µM | IGROV-1 > 100 µM | RXF 393 > 100 µM | MDA-MB-231 > 100 µM | SK-OV-3 > 100 µM | KM12 > 100 µM | HCT-116 > 100 µM | NCI/ADR-RES > 100 µM

CCOC1NC(/N=C/c2ccc(OC)cc2)=C(C#N)C1C#N (stereo not given)
inactive: HT-29 > 100 µM | SF-295 > 100 µM | UACC-62 32.9 µM | OVCAR-8 > 100 µM | OVCAR-4 18.4 µM | M14 > 100 µM | CCRF-CEM 26.7 µM | K562 31 µM | SW-620 50.9 µM | A549 > 100 µM | Hs-578T 47.5 µM | SK-MEL-5 38.6 µM | MDA-MB-435 40.6 µM | IGROV-1 > 100 µM | RXF 393 34.5 µM | MDA-MB-231 64.6 µM | SK-OV-3 80.4 µM | KM12 64.6 µM | HCT-116 63.1 µM | NCI/ADR-RES > 100 µM
